One assay concerns IFNa induced pSTAT3. The assay is described as follows: IFNα-induced pSTAT3 in human whole blood (lymphocytes). It is filed as cell-based. As to conditions: Lymphocyte, JAK1/TYK2, read-out: IFNa induced pSTAT3, cellular potency IC50. Here is the method:
(§1) Human whole blood was collected from healthy donors via vein puncture into Vacutainer collection tubes containing sodium heparin in accordance with Pfizer protocols (Protocol No. GOHW RDP-01) approved by the Shulman Institutional Review Board. Blood was warmed to 37° C. priorto use. Human whole blood was aliquoted (90 μL/well) in 96-well, deep-well, V-bottom plates and treated with compounds (5 μL/well) at different concentrations up to 60 μM (0.2% DMSO final) at 37° C. for 60 minutes. This was followed by a challenge with IFNα (5000 U/mL), IFNγ (100 ng/mL), IL-6 (50 ng/mL), IL-10 (30 ng/mL), IL-12 (30 ng/mL), IL-15 (30 ng/mL), IL-21 (50 ng/mL), IL-23 (25 ng/mL), IL-27 (1000 ng/mL), EPO (2 U/mL), TSLP (50 ng/mL) or PBS and incubated for 15 minutes. Anti-cell surface antibodies were added 15 minutes prior to cytokine stimulation; anti-CD3-BV421 (0.5 μL/well) to IL-6-treated and TSLP-treated samples and anti-CD14-BV421 (0.5 μL/well) to IFNγ-treated samples. Samples were treated with warm 1×Lyse/Fix buffer (700 μL/well) to terminate activation and further incubated at 37° C. for 20 minutes to lyse red blood cells. Plates were centrifuged at 300×g for 5 minutes, supernatant was aspirated, and cells were washed with 800 μL/well of staining buffer (D-PBS containing 0.1% FBS and 0.01% sodium azide). Washed cell pellets were resuspended in 350 μL/well of prechilled 90% methanol and incubated at 4° C. for 30 minutes. After the removal of 90% methanol, cells were washed once with staining buffer. […]
(§2) After overnight incubation at 4° C., anti-pSTAT stained samples were transferred into 96-well polypropylene U-bottom plates and flow cytometric analysis was performed on a LSR Fortessa™ equipped with a HTS plate loader. […] Background fluorescence was defined using unstimulated cells and a gate was placed at the foot of the peak to include ˜0.5% gated population. […]

In a further assay the target is JAK2 (Homo sapiens, UniProt O60674). The assay can be described thus: JAK Caliper Enzyme Assay at 1 mM ATP (JAK2). Type of assay: biochemical. As for the experimental part: JAK Caliper Enzyme Assay at 1 mM ATP
Test article was solubilized in dimethyl sulfoxide (DMSO) to a stock concentration of 30 mM. An 11-point half log dilution series was created in DMSO with a top concentration of 600 μM. […] The compound plates were diluted 1 to 60 resulting in a top final assay compound concentration of 10 μM and a 2% DMSO concentration. Test article and assay controls were added to a 384-well plate. Reaction mixtures contained 20 mM HEPES, pH 7.4, 10 mM magnesium chloride, 0.01% bovine serum albumin (BSA), 0.0005% Tween 20, 1 mM ATP and 1 μM peptide substrate. […] The assays were initiated by the addition of 20 nM JAK1, 1 nM JAK2, 1 nM JAK3 or 1 nM TYK2 enzyme and were incubated at room temperature for three hours for JAK1, 60 minutes for JAK2, 75 minutes for JAK3 or 135 minutes for TYK2. Enzyme concentrations and incubation times were optimized for each new enzyme preps and were modified slightly over time to ensure 20%-30% phosphorylation. The assays were stopped with a final concentration of 10 mM EDTA, 0.1% Coating Reagent and 100 mM HEPES, pH=7.4. The assay plates were placed on a Caliper Life Science Lab Chip 3000 (LC3000) instrument, and each well was sampled using appropriate separation conditions to measure the unphosphorylated and phosphorylated peptide.

For another assay, the system named is IL-22 induced pSTAT3. The assay can be described thus: IL-22-induced pSTAT3 in human keratinocytes. Type of assay: cell-based. As to conditions: Keratinocyte, JAK1/TYK2, read-out: IL-22 induced pSTAT3, cellular potency IC50.
Another assay deals with IL-27 induced pSTAT3. The assay is described as follows: IL-27-induced pSTAT3 in human whole blood (lymphocytes). Type of assay: cell-based. As to conditions: Lymphocyte, JAK1/JAK2, read-out: IL-27 induced pSTAT3, cellular potency IC50. As for the experimental part:
as §1, with “buffer. All samples were finally suspended in 150 μL/well of the desired anti-phospho-STAT antibodies at 1:150 dilution in staining buffer; anti-pSTAT1-AF647 in IFNγ treated samples; anti-pSTAT1-AF488 and anti-pSTAT3-AF647 in IL-6-treated samples, anti-pSTAT3-AF647 in IFNα, IL-10, IL-21, IL-23 and IL-27 treated samples, anti-pSTAT4-AF647 in IL-12 treated samples, anti-pSTAT5-AF-647 in EPO, IL-15 and TSLP-treated samples. Human primary keratinocytes were cultured in DermaLife™ medium with supplement kit to expand cell population. Cell passages 2 to 5 were used in the assays. Cells were harvested at ˜80% confluence, suspended in warm DermaLife™ medium, aliquoted (90 μL/well) in 96-well, deep-well, V-bottom plates, and incubated at 37° C. for 30 minutes. Cells were then treated with compounds (0.0003 to 20 μM) for 60 minutes and followed by stimulation with IL-4 (2 ng/mL) or IL-13 (20 ng/mL) at 37° C. for 15 minutes.” for “buffer.”
as §2

In a further assay the test system is EPO induced pSTAT5. The assay can be described thus: EPO-induced pSTAT5 in human whole blood (all events). Type of assay: cell-based. As to conditions: JAK2/JAK2, read-out: EPO induced pSTAT5, cellular potency IC50. Here is the method:
as §1, with “buffer. All samples were finally suspended in 150 μL/well of the desired anti-phospho-STAT antibodies at 1:150 dilution in staining buffer; anti-pSTAT1-AF647 in IFNγ treated samples; anti-pSTAT1-AF488 and anti-pSTAT3-AF647 in IL-6-treated samples, anti-pSTAT3-AF647 in IFNα, IL-10, IL-21, IL-23 and IL-27 treated samples, anti-pSTAT4-AF647 in IL-12 treated samples, anti-pSTAT5-AF-647 in EPO, IL-15 and TSLP-treated samples. Human primary keratinocytes were cultured in DermaLife™ medium with supplement kit to expand cell population. Cell passages 2 to 5 were used in the assays. Cells were harvested at ˜80% confluence, suspended in warm DermaLife™ medium, aliquoted (90 μL/well) in 96-well, deep-well, V-bottom plates, and incubated at 37° C. for 30 minutes. Cells were then treated with compounds (0.0003 to 20 μM) for 60 minutes and followed by stimulation with IL-4 (2 ng/mL) or IL-13 (20 ng/mL) at 37° C. for 15 minutes.” for “buffer.”
as §2

Another assay has as its system IL-21 induced pSTAT3. The assay can be described thus: IL-21-induced pSTAT3 in human whole blood (lymphocytes). To be noted: Lymphocyte, JAK1/JAK3, read-out: IL-21 induced pSTAT3, cellular potency IC50. Type of assay: cell-based. As for the experimental part:
as §1, with “buffer. All samples were finally suspended in 150 μL/well of the desired anti-phospho-STAT antibodies at 1:150 dilution in staining buffer; anti-pSTAT1-AF647 in IFNγ treated samples; anti-pSTAT1-AF488 and anti-pSTAT3-AF647 in IL-6-treated samples, anti-pSTAT3-AF647 in IFNα, IL-10, IL-21, IL-23 and IL-27 treated samples, anti-pSTAT4-AF647 in IL-12 treated samples, anti-pSTAT5-AF-647 in EPO, IL-15 and TSLP-treated samples. Human primary keratinocytes were cultured in DermaLife™ medium with supplement kit to expand cell population. Cell passages 2 to 5 were used in the assays. Cells were harvested at ˜80% confluence, suspended in warm DermaLife™ medium, aliquoted (90 μL/well) in 96-well, deep-well, V-bottom plates, and incubated at 37° C. for 30 minutes. Cells were then treated with compounds (0.0003 to 20 μM) for 60 minutes and followed by stimulation with IL-4 (2 ng/mL) or IL-13 (20 ng/mL) at 37° C. for 15 minutes.” for “buffer.”
as §2

The subject of a further assay is IL-4 induced pSTAT6. The assay can be described thus: IL-4-induced pSTAT6 in human keratinocytes. Type of assay: cell-based. To be noted: Keratinocyte, JAK1/JAK2, read-out: IL-4 induced pSTAT6, cellular potency IC50. As for the experimental part:
as §1, §2

Molecules are shown by their SMILES.

Chain of JAK2 (O60674 whole entry): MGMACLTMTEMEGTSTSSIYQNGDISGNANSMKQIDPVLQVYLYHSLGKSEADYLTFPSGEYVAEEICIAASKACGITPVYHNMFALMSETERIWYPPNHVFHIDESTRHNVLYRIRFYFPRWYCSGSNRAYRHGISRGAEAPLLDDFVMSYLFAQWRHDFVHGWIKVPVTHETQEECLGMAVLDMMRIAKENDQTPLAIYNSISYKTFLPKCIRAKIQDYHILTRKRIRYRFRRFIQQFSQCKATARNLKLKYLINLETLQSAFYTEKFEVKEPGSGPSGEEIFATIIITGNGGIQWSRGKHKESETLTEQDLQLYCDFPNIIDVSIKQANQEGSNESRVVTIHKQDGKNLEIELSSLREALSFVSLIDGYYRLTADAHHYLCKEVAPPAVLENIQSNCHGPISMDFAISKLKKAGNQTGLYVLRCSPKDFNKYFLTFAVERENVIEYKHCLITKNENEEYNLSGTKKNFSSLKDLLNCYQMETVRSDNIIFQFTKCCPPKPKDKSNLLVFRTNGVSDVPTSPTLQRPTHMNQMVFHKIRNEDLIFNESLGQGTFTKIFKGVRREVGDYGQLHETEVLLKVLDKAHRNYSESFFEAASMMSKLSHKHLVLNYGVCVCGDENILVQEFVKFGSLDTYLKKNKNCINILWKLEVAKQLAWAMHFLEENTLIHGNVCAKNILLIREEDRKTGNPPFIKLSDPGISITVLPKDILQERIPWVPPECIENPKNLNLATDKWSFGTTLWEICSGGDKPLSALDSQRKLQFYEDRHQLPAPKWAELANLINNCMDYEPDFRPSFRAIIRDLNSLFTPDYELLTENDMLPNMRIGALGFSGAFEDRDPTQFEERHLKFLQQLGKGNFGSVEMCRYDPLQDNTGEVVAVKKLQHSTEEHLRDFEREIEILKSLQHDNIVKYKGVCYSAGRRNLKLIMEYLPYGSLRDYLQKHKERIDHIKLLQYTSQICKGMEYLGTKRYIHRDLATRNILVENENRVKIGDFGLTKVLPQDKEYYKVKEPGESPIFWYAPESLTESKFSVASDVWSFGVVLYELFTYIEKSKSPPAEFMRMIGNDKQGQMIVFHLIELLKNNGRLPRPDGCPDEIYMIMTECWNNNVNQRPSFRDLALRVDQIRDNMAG

As for `CN(c1ncnc2[nH]ccc12)[C@H]1C[C@@H](NS(=O)(=O)CCCO)C1` [IB (M1), 3-Hydroxy-N-(cis-3-(methyl(7H-pyrrolo[2,3-d]pyrimidin-4-yl)amino)cyclobutyl)propane-1-sulfonamide], the IC50 (as a rule, the concentration that gives 50% inhibition) in the assay on IFNa induced pSTAT3 was 296 nM; on JAK2 it was 1140 nM; with IL-22 induced pSTAT3 it was 703 nM; in the assay on IL-27 induced pSTAT3, 382 nM; in the assay with EPO induced pSTAT5, 9750 nM; in the assay with IL-21 induced pSTAT3, 844 nM. Besides, the IC50 in the assay with IL-4 induced pSTAT6 turned out to be 433 nM.
Turning to `C[C@@H](O)CS(=O)(=O)N[C@H]1C[C@@H](N(C)c2ncnc3[nH]ccc23)C1` (single isomer, unassigned) [IC (M3)], the IC50 with IFNa induced pSTAT3 worked out at 225 nM; against JAK2 it was 2280 nM; with IL-27 induced pSTAT3, 572 nM; with EPO induced pSTAT5 it was 18100 nM; in the assay on IL-21 induced pSTAT3 it was 1050 nM.
Regarding `C[C@H](O)CS(=O)(=O)N[C@H]1C[C@@H](N(C)c2ncnc3[nH]ccc23)C1` (single isomer, unassigned) [IA (M2)], the IC50 was 90.5 nM with IFNa induced pSTAT3; 886 nM against JAK2; 198 nM in the assay with IL-22 induced pSTAT3; 234 nM in the assay on IL-27 induced pSTAT3; 9470 nM in the assay with EPO induced pSTAT5; 487 nM in the assay on IL-21 induced pSTAT3. For the same molecule, the IC50 in the assay on IL-4 induced pSTAT6 worked out at 134 nM.

These data come from patent US20230219963A1, “PYRROLO[2,3-D]PYRIMIDINE DERIVATIVES” (Pfizer Inc., priority 2020, published 2023).
